Consider 21 compounds from ChEMBL document CHEMBL4813986, “Multicomponent synthesis and anti-proliferative screening of biaryl triazole-containing cyclophanes” (Bioorg Med Chem Lett, 2021).

In brackets after ≈: the same amount, converted by molar mass. Activity calls are given as the source filed them. The calls are words filed in the database; no cut-off is given here.

One data set has as its system MCF7. Nature of the data set: Antiproliferative activity against human MCF7 cells assessed as inhibition of cell growth at 50 uM relative to control. In kind it is functional.
Data set [1] can be described thus: Cytotoxicity against African green monkey COS7 cells assessed as inhibition of cell growth at 50 uM relative to control. In kind it is cell-based. Conditions: chlorocebus aethiops, COS-7 cells.
Data set [2] concerns PC-3. Nature of the data set: Antiproliferative activity against human PC-3 cells assessed as inhibition of cell growth at 50 uM relative to control. The data set is classed as functional.
Data set [3] concerns PC-3. Nature of the data set: Antiproliferative activity against human PC-3 cells assessed as inhibition of cell growth. In kind it is functional, cell-based.
A further data set has as its system DU-145. Nature of the data set: Antiproliferative activity against human DU-145 cells assessed as inhibition of cell growth at 50 uM relative to control. The data set is classed as functional.
Data set [4] can be described thus: Aqueous solubility of the compound. The data set is classed as physicochemical. The settings on record: buffer.
Another data set deals with Bel-7402. Nature of the data set: Cytotoxicity against human Bel-7402 cells assessed as reduction in cell viability measured after 5 days by MTT assay. In kind it is functional, cell-based. For orientation: Formazan colour is commonly taken as a measure of viable cells.

What is called inhibition is the percentage by which the read-out fell short of the control. For orientation: IC50 means the point on the concentration scale where inhibition reaches its midpoint. With `CC(C)c1ccc(N2C(=O)Cc3ccc(cc3)OCCCn3cc(nn3)COc3ccc(cc3)-c3cccc(c3)C2C(=O)NC2CCCCC2)cc1` (stereo not given), the inhibition at 50 µM in the data set on MCF7 amounted to 58.2%; in data set [1] it was 48%; with PC-3 [2] it was 60.8%; in the data set with DU-145, 41.9%. In the data set on PC-3 [3], the IC50 was 13.8 µM.

On to `O=C(NC1CCCCC1)C1c2cccc(c2)-c2ccc(cc2)OCc2cn(nn2)CCCCCOc2ccc(cc2)CC(=O)N1c1ccc(C(F)(F)F)cc1` (stereo not given), for which the inhibition at 50 µM in the data set on MCF7 stood at 53.3%; in data set [1], 45.4%; with PC-3 [2], 46%; in the data set on DU-145, 48.8%.

For `O=C(NC1CCCCC1)C1c2cccc(c2)-c2ccc(cc2)OCc2cn(nn2)CCCCOc2ccc(cc2)CC(=O)N1c1ccc(C(F)(F)F)cc1` (stereo not given), the inhibition at 50 µM in the data set on MCF7 was 57.1%; in data set [1], 38.1%; in the data set with PC-3 [2], 48.5%; with DU-145, 39%.

On to `O=C(NC1CCCCC1)C1c2cccc(c2)-c2ccc(cc2)OCc2cn(nn2)CCOc2ccc(cc2)CC(=O)N1c1ccc(F)cc1` (stereo not given), for which the inhibition at 50 µM in the data set on MCF7 is 43.2%; in data set [1] it was 43.2%; in the data set on PC-3 [2], 50.3%; with DU-145 it was 28.4%.

For `CCCCCCCCCCCCNC(=O)C1c2cccc(c2)-c2ccc(cc2)OCc2cn(nn2)CCOc2ccc(cc2)CC(=O)N1c1ccc(C(F)(F)F)cc1` (stereo not given), the inhibition at 50 µM with MCF7 is 41.7%; in data set [1], 33.6%; with PC-3 [2], 45.8%; in the data set on DU-145, 19.7%.

As for `CCCCCCCCCCCCNC(=O)C1c2cccc(c2)-c2ccc(cc2)OCc2cn(nn2)CCOc2ccc(cc2)CC(=O)N1c1ccc(F)cc1` (stereo not given), the inhibition at 50 µM in the data set with MCF7 came to 82.4%; in data set [1], 35%; in the data set on PC-3 [2], 68.3%; in the data set on DU-145, 93.1%. The IC50 in the data set on PC-3 [3] stood at 13.9 µM.

On to `O=C(NC1CCCCC1)C1c2cccc(c2)-c2ccc(cc2)OCc2cn(nn2)CCCOc2ccc(cc2)CC(=O)N1c1ccc(C(F)(F)F)cc1` (stereo not given), for which the inhibition at 50 µM in the data set on MCF7 was 60.9%; in data set [1] it was 30.9%; in the data set on PC-3 [2], 35.5%; in the data set on DU-145 it was 20.1%.

`CC(C)(C)NC(=O)C1c2cccc(c2)-c2ccc(cc2)OCc2cn(nn2)CCOc2ccc(cc2)CC(=O)N1Cc1ccccc1` (stereo not given): the inhibition at 50 µM in the data set on MCF7 was determined as 44.6%; in data set [1] it was 37.8%; in the data set with PC-3 [2] it was 48.3%; in the data set with DU-145, 25.5%.

Consider `CCCCCCCCCCCCNC(=O)C1c2cccc(c2)-c2ccc(cc2)OCc2cn(nn2)CCCOc2ccc(cc2)CC(=O)N1c1ccc(C(C)C)cc1` (stereo not given), for which the inhibition at 50 µM in the data set on MCF7 is 31.8%; in data set [1], 9.9%; in the data set with PC-3 [2] it was 30.1%; in the data set with DU-145, 21.2%. Also, the solubility result in data set [4] is given as “Insoluble”.

Consider `O=C(NC1CCCCC1)C1c2cccc(c2)-c2ccc(cc2)OCc2cn(nn2)CCOc2ccc(cc2)CC(=O)N1Cc1ccccc1` (stereo not given), for which the inhibition at 50 µM in the data set with MCF7 was 15.2%; in data set [1], 9.9%; in the data set with PC-3 [2] it was 11.6%; in the data set with DU-145 it was 11%.

Consider `CC(C)c1ccc(N2C(=O)Cc3ccc(cc3)OCCn3cc(nn3)COc3ccc(cc3)-c3cccc(c3)C2C(=O)NC2CCCCC2)cc1` (stereo not given), for which the inhibition at 50 µM is 81.8% with MCF7, 37.5% in data set [1], 90.2% in the data set with PC-3 [2] and 93.8% in the data set on DU-145. In addition, the IC50 in the data set with PC-3 [3] worked out at 4.6 µM.

Turning to `CCCCCCCCCCCCNC(=O)C1c2cccc(c2)-c2ccc(cc2)OCc2cn(nn2)CCOc2ccc(cc2)CC(=O)N1Cc1ccccc1` (stereo not given), the inhibition at 50 µM was 26.4% in the data set on MCF7, 28.2% in data set [1], 25.8% in the data set on PC-3 [2] and 10.4% with DU-145.

As to `CCCCCCCCCCCCNC(=O)C1c2cccc(c2)-c2ccc(cc2)OCc2cn(nn2)CCCCCOc2ccc(cc2)CC(=O)N1c1ccc(C(F)(F)F)cc1` (stereo not given), the results for the inhibition at 50 µM (with MCF7; in data set [1]; in the data set on PC-3 [2]) were 24.9%, 10.2% and 22%, respectively. The inhibition result in the data set with DU-145 was “inactive”.

`O=C(NC1CCCCC1)C1c2cccc(c2)-c2ccc(cc2)OCc2cn(nn2)CCOc2ccc(cc2)CC(=O)N1c1ccc(C(F)(F)F)cc1` (stereo not given): the inhibition at 50 µM in the data set with MCF7 is 45.8%; in data set [1], 37.7%; in the data set on PC-3 [2], 46.9%; in the data set on DU-145, 37.1%.

Turning to `CCCCCCCCCCCCNC(=O)C1c2cccc(c2)-c2ccc(cc2)OCc2cn(nn2)CCCOc2ccc(cc2)CC(=O)N1c1ccc(C(F)(F)F)cc1` (stereo not given), the inhibition at 50 µM with MCF7 was determined as 45.6%; in data set [1], 20.4%; in the data set with PC-3 [2], 15.3%; with DU-145, 9.8%.

Take `CC(C)c1ccc(N2C(=O)Cc3ccc(cc3)OCCCn3cc(nn3)COc3cccc(c3)C2C(=O)NC2CCCCC2)cc1` (stereo not given): the IC50 with PC-3 [3] turned out to be 9.7 µM.

`CC1=C[C@H]2O[C@@H]3C[C@H]4OC(=O)/C=C\C=C\[C@@H]5O[C@@H](O[C@H]5C)[C@H](O)/C(C)=C/C(=O)OC[C@@]2(CC1)[C@]4(C)[C@]31CO1`: the IC50 in the data set on Bel-7402 was determined as 0.35 µg/mL (≈ 0.662 µM).

As for `CCCCCCCCCCCCNC(=O)C1c2cccc(c2)-c2ccc(cc2)OCc2cn(nn2)CCOc2ccc(cc2)CC(=O)N1c1ccc(C(C)C)cc1` (stereo not given), the inhibition at 50 µM with MCF7 came to 39.2%; in data set [1], 25.6%; in the data set with PC-3 [2], 25.4%; in the data set with DU-145, 51%. Moreover, the solubility result in data set [4] is recorded as “Insoluble”.

Consider `CCCCCCCCCCCCNC(=O)C1c2cccc(c2)-c2ccc(cc2)OCc2cn(nn2)CCCCOc2ccc(cc2)CC(=O)N1c1ccc(C(F)(F)F)cc1` (stereo not given), for which the inhibition at 50 µM with MCF7 worked out at 42.9%; in data set [1], 16.6%; with PC-3 [2] it was 36.4%; with DU-145, 52.8%.

On to `CC(C)(C)NC(=O)C1c2cccc(c2)-c2ccc(cc2)OCc2cn(nn2)CCCOc2ccc(cc2)CC(=O)N1Cc1ccccc1` (stereo not given), for which the inhibition at 50 µM with MCF7 turned out to be 67.9%; in data set [1] it was 33.1%; with PC-3 [2], 5.5%. Moreover, in the data set on DU-145, the inhibition result is “inactive”.

With `COc1cc([C@@H]2c3cc4c(cc3[C@@H](O[C@@H]3O[C@@H]5CO[C@@H](C)O[C@H]5[C@H](O)[C@H]3O)[C@H]3COC(=O)[C@H]23)OCO4)cc(OC)c1O` [ETOPOSIDE], in the data set with PC-3 [3], the IC50 was determined as 31.5 µM.
